What was measured:
Experiment in all cases: relative viability (nuclei count vs DMSO), 5 days (fraction); higher = more cells survive
Erlotinib + Decitabine = compound: C#Cc1cccc(Nc2ncnc3cc(OCCOC)c(OCCOC)cc23)c1 [Erlotinib] + Nc1ncn([C@H]2C[C@H](O)[C@@H](CO)O2)c(=O)n1 [Decitabine] (partner 2 µM)
In short: (§1)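 Five library-drug doses in √10 steps were combined with a fixed anchor-drug dose, or a single drug was given alone, by pin tool to lung cancer cell lines in 1536-well plates the day after seeding. Nuclei were stained and counted after 5 days. Relative viability is the nuclei count in treated wells over that in vehicle wells, taken as the median of duplicate plates.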

AT9283 + Navitoclax = compound: O=C(Nc1c[nH]nc1-c1nc2ccc(CN3CCOCC3)cc2[nH]1)NC1CC1 [AT9283] + CC1(C)CCC(c2ccc(Cl)cc2)=C(CN2CCN(c3ccc(C(=O)NS(=O)(=O)c4ccc(N[C@H](CCN5CCOCC5)CSc5ccccc5)c(S(=O)(=O)C(F)(F)F)c4)cc3)CC2)C1 [Navitoclax] (partner 0.5 µM)
In short: as §1

AT9283 + OSI-027 = compound: O=C(Nc1c[nH]nc1-c1nc2ccc(CN3CCOCC3)cc2[nH]1)NC1CC1 [AT9283] + COc1cccc2cc(-c3nc([C@H]4CC[C@H](C(=O)O)CC4)n4ncnc(N)c34)[nH]c12 [OSI-027] (partner 0.5 µM)
In short: as §1

AT9283 + Dasatinib = compound: O=C(Nc1c[nH]nc1-c1nc2ccc(CN3CCOCC3)cc2[nH]1)NC1CC1 [AT9283] + Cc1nc(Nc2ncc(C(=O)Nc3c(C)cccc3Cl)s2)cc(N2CCN(CCO)CC2)n1 [Dasatinib] (partner 0.075 µM)
In short: as §1

AT9283 + AZD7762 = compound: O=C(Nc1c[nH]nc1-c1nc2ccc(CN3CCOCC3)cc2[nH]1)NC1CC1 [AT9283] + NC(=O)Nc1cc(-c2cccc(F)c2)sc1C(=O)N[C@H]1CCCNC1 [AZD7762] (partner 0.2 µM)
In short: as §1

Row | Cell Line | relative viability (Erlotinib + Decitabine; first compound 0.02 µM) | relative viability (Erlotinib + Decitabine; first compound 0.2 µM) | relative viability (Erlotinib + Decitabine; first compound 0.6325 µM) | relative viability (Erlotinib + Decitabine; first compound 2 µM) | relative viability (AT9283 + Navitoclax; first compound 0.003 µM) | relative viability (AT9283 + Navitoclax; first compound 0.03 µM) | relative viability (AT9283 + Navitoclax; first compound 0.09487 µM) | relative viability (AT9283 + Navitoclax; first compound 0.3 µM) | relative viability (AT9283 + OSI-027; first compound 0.003 µM) | relative viability (AT9283 + OSI-027; first compound 0.03 µM) | relative viability (AT9283 + OSI-027; first compound 0.09487 µM) | relative viability (AT9283 + OSI-027; first compound 0.3 µM) | relative viability (AT9283 + Dasatinib; first compound 0.003 µM) | relative viability (AT9283 + Dasatinib; first compound 0.03 µM) | relative viability (AT9283 + Dasatinib; first compound 0.09487 µM) | relative viability (AT9283 + Dasatinib; first compound 0.3 µM) | relative viability (AT9283 + AZD7762; first compound 0.003 µM) | relative viability (AT9283 + AZD7762; first compound 0.03 µM) | relative viability (AT9283 + AZD7762; first compound 0.09487 µM) | relative viability (AT9283 + AZD7762; first compound 0.3 µM)
1 | HCC-366 | 0.353 | 0.324 | 0.335 | 0.264 | 1.1 | 0.842 | 0.191 | 0.0248 | 0.834 | 0.845 | 0.048 | 0.0995 | 0.619 | 0.566 | 0.104 | 0.053 | 0.209 | 0.485 | 0.0684 | 0.0719
2 | HCC-827 | 0.21 | 0.215 | 0.111 | 0.169 | 0.995 | 0.879 | 0.449 | 0.326 | 0.694 | 0.647 | 0.597 | 0.181 | 0.271 | 0.266 | 0.26 | 0.205 | 0.234 | 0.169 | 0.145 | 0.153
3 | HOP-62 | 0.232 | 0.221 | 0.187 | 0.241 | 1.07 | 0.857 | 0.088 | 0.106 | 0.868 | 0.792 | 0.53 | 0.253 | 0.666 | 0.58 | 0.295 | 0.186 | 0.561 | 0.143 | 0.161 | 0.199
4 | LC-2-ad | 0.889 | 0.79 | 0.735 | 0.656 | 0.506 | 0.232 | 0.0899 | 0.101 | 0.766 | 0.476 | 0.249 | 0.229 | 0.456 | 0.291 | 0.177 | 0.187 | 0.848 | 0.794 | 0.398 | 0.227
5 | LCLC-97TM1 | 0.224 | 0.254 | 0.234 | 0.256 | 0.335 | 0.117 | 0.107 | 0.144 | 0.539 | 0.288 | 0.0798 | 0.108 | 0.798 | 0.492 | 0.255 | 0.162 | 0.305 | 0.102 | 0.0858 | 0.0762
6 | LK-2 | 0.294 | 0.291 | 0.346 | 0.262 | 0.803 | 0.493 | 0.169 | 0.168 | 0.2 | 0.151 | 0.156 | 0.143 | 0.228 | 0.197 | 0.135 | 0.142 | 0.344 | 0.109 | 0.0946 | 0.0986
7 | LOU-NH91 | 0.715 | 0.626 | 0.688 | 0.602 | 0.735 | 0.605 | 0.37 | 0.283 | 0.697 | 0.698 | 0.599 | 0.388 | 0.524 | 0.562 | 0.366 | 0.296 | 0.735 | 0.669 | 0.479 | 0.444
8 | LU99A | – | 0.92 | 0.983 | 0.765 | 0.766 | 0.243 | 0.142 | 0.151 | 0.297 | 0.233 | 0.166 | 0.155 | 0.546 | 0.195 | 0.229 | 0.247 | 0.457 | 0.137 | 0.139 | 0.148
9 | LXF-289 | 0.448 | 0.398 | 0.363 | 0.383 | 0.93 | 0.665 | 0.123 | 0.133 | 0.81 | 0.769 | 0.166 | 0.0735 | 0.227 | 0.106 | 0.0281 | 0.029 | 1.11 | 0.782 | 0.141 | 0.096
10 | NCI-H23 | 0.312 | 0.293 | 0.324 | 0.337 | 0.741 | 0.538 | 0.423 | 0.174 | 0.666 | 0.674 | 0.344 | 0.281 | 0.726 | 0.67 | 0.464 | 0.327 | 0.265 | 0.295 | 0.179 | 0.128
11 | NCI-H322M | 0.718 | 0.582 | 0.55 | 0.545 | 1.27 | 0.802 | 0.731 | 0.436 | 0.396 | 0.306 | 0.472 | 0.464 | 0.257 | 0.236 | 0.224 | 0.223 | 0.554 | 0.395 | 0.46 | 0.487
12 | NCI-H460 | 0.508 | 0.433 | 0.505 | 0.47 | 1.23 | 0.987 | 0.0587 | 0.0315 | 0.678 | 0.81 | 0.248 | 0.0423 | 0.395 | 0.495 | 0.265 | 0.0688 | 0.543 | 0.687 | 0.131 | 0.11
13 | NCI-H596 | 1.21 | 0.926 | 0.999 | 0.985 | 1.05 | 0.839 | 0.689 | 0.481 | 0.704 | 0.779 | 0.665 | 0.476 | 0.59 | 0.597 | 0.565 | 0.297 | 1.01 | 1.2 | 0.976 | 0.595
14 | NCI-H647 | 0.422 | 0.392 | 0.442 | 0.456 | 1.03 | 0.542 | 0.125 | 0.0857 | 0.782 | 0.524 | 0.173 | 0.132 | 0.15 | 0.114 | 0.036 | 0.0661 | 0.524 | 0.13 | 0.0611 | 0.0591
15 | NCI-H727 | 0.898 | 0.596 | 0.92 | 0.731 | 0.532 | 0.235 | 0.154 | 0.11 | 0.657 | 0.483 | 0.487 | 0.324 | 0.423 | 0.467 | 0.314 | 0.245 | 0.684 | 0.574 | 0.37 | 0.383
16 | NCI-H838 | 0.507 | 0.48 | 0.488 | 0.465 | 1.32 | 0.333 | 0.239 | 0.213 | 0.471 | 0.496 | 0.178 | 0.195 | 0.302 | 0.255 | 0.222 | 0.188 | 0.968 | 0.705 | 0.612 | 0.655
17 | NCI-H1355 | 0.394 | 0.315 | 0.322 | 0.341 | 1.07 | 0.806 | 0.46 | 0.158 | 0.399 | 0.436 | 0.276 | 0.221 | 0.634 | 0.727 | 0.296 | 0.273 | 0.9 | 0.568 | 0.602 | 0.23
18 | NCI-H1395 | 0.816 | 0.726 | 0.807 | 0.678 | 1.21 | 0.716 | 0.393 | 0.421 | 0.523 | 0.541 | 0.356 | 0.363 | 0.434 | 0.424 | 0.292 | 0.287 | 0.411 | 0.361 | 0.333 | 0.335
19 | NCI-H1437 | 0.575 | 0.57 | 0.598 | 0.514 | 1.17 | 0.832 | 0.265 | 0.178 | 0.933 | 0.848 | 0.669 | 0.206 | 0.342 | 0.379 | 0.224 | 0.114 | 1.11 | 0.98 | 0.431 | 0.291
20 | NCI-H1651 | 0.623 | 0.438 | 0.644 | 0.524 | 1.09 | 0.956 | 0.489 | 0.231 | 0.753 | 0.714 | 0.568 | 0.334 | 0.442 | 0.368 | 0.319 | 0.212 | 0.43 | 0.441 | 0.403 | 0.213
21 | NCI-H1666 | – | – | 0.557 | 0.458 | 1.08 | 0.885 | 0.432 | 0.315 | 0.782 | 0.811 | 0.636 | 0.483 | 0.866 | 0.682 | 0.574 | 0.431 | 0.817 | 0.685 | 0.733 | 0.491
22 | NCI-H1734 | 0.488 | 0.485 | 0.463 | 0.509 | 0.839 | 0.318 | 0.131 | 0.127 | 0.634 | 0.331 | 0.237 | 0.201 | 0.332 | 0.301 | 0.187 | 0.158 | 0.533 | 0.274 | 0.225 | 0.245
23 | NCI-H1755 | 0.725 | 0.75 | 0.741 | 0.764 | 0.988 | 0.876 | 0.482 | 0.281 | 0.697 | 0.72 | 0.396 | 0.537 | 0.451 | 0.437 | 0.265 | 0.272 | 0.466 | 0.401 | 0.326 | 0.267
24 | NCI-H1792 | 0.634 | 0.482 | 0.505 | 0.477 | 0.637 | 0.569 | 0.248 | 0.187 | 0.727 | 0.868 | 0.742 | 0.404 | 0.894 | 0.886 | 0.748 | 0.538 | 0.601 | 0.647 | 0.432 | 0.262
25 | NCI-H1793 | 0.492 | 0.443 | 0.328 | 0.343 | 0.533 | 0.429 | 0.231 | 0.164 | 0.278 | 0.367 | 0.188 | 0.206 | 0.405 | 0.39 | 0.256 | 0.138 | 0.564 | 0.495 | 0.233 | 0.185
26 | NCI-H1915 | 0.288 | 0.266 | 0.272 | 0.269 | 0.657 | 0.72 | 0.504 | 0.174 | 0.619 | 0.619 | 0.239 | 0.196 | 0.276 | 0.289 | 0.141 | 0.141 | 0.617 | 0.548 | 0.334 | 0.222
27 | NCI-H1944 | 0.43 | 0.382 | 0.37 | 0.372 | 1.03 | 0.865 | 0.652 | 0.235 | 0.391 | 0.291 | 0.201 | 0.229 | 0.199 | 0.178 | 0.116 | 0.111 | 0.594 | 0.246 | 0.184 | 0.125

Source: the supplement of paper PMC10307832
